Data taken from the NIST ThermoML archive (doi:10.1016/j.fluid.2018.08.017).

How the values were obtained:
[1] = Liquid; for speed of sound: Single path-length method; for mass density: Vibrating tube method
[2] = refractive index (Na D-line) (dimensionless); settings: 101.33 kPa, Liquid, Standard Abbe refractometry
[3] = wn = mass fraction of the nth substance listed; settings: 101 kPa, Liquid, w1 = 1; for speed of sound: Single path-length method; for mass density: Vibrating tube method

CCCCn1cc[n+](C)c1.F[B-](F)(F)F [1-butyl-3-methylimidazolium tetrafluoroborate]
[1]
Settings | mass density, 101 kPa [kg/m3] | mass density, 101.33 kPa [kg/m3] | speed of sound, 101 kPa [m/s] | viscosity, 101 kPa [mPa·s]
293.15 K | 1206 | – | 1576.7 | 129.34
298.15 K | 1202.4 | – | 1564.7 | 98.95
303.15 K | 1198.8 | – | 1552.8 | 77
308.15 K | 1195.2 | – | 1541.2 | 60.9
313.15 K | 1191.7 | – | 1529.6 | 49.2
318.15 K | 1188.1 | 1188.2 | 1518.2 | 40.27
323.15 K | 1184.6 | – | 1506.9 | 33.44
328.15 K | 1181.1 | – | 1495.7 | 28.12
333.15 K | 1177.6 | – | 1484.5 | 23.94
338.15 K | 1174.2 | – | 1473.2 | 20.62
343.15 K | 1170.7 | – | 1461.7 | 17.92

Settings | refractive index
[2], 293.15 K | 1.423

CCCCn1cc[n+](C)c1.F[B-](F)(F)F [1-butyl-3-methylimidazolium tetrafluoroborate] + CN1CCCC1=O
[3]
Settings | mass density [kg/m3] | speed of sound [m/s] | viscosity [mPa·s]
293.15 K | 1206 | 1576.7 | 129.34
298.15 K | 1202.4 | 1564.7 | 98.95
303.15 K | 1198.8 | 1552.8 | 77
308.15 K | 1195.2 | 1541.2 | 60.9
313.15 K | 1191.7 | 1529.6 | 49.2
318.15 K | 1188.1 | 1518.2 | 40.27
323.15 K | 1184.6 | 1506.9 | 33.44
328.15 K | 1181.1 | 1495.7 | 28.12
333.15 K | 1177.6 | 1484.5 | 23.94
338.15 K | 1174.2 | 1473.2 | 20.62
343.15 K | 1170.7 | 1461.7 | 17.92

CN1CCCC1=O [N-methylpyrrolidone]
[1], 101 kPa
Settings | mass density [kg/m3] | speed of sound [m/s] | viscosity [mPa·s]
293.15 K | 1034.1 | 1565.7 | 1.786
298.15 K | 1029.7 | 1546.1 | 1.693
303.15 K | 1025.2 | 1526.7 | 1.564
308.15 K | 1020.8 | 1507.5 | 1.448
313.15 K | 1016.3 | 1488.3 | 1.346
318.15 K | 1011.9 | 1469.2 | 1.258
323.15 K | 1007.4 | 1450.4 | 1.176
328.15 K | 1002.9 | 1431.4 | 1.103
333.15 K | 998.4 | 1412.8 | 1.037
338.15 K | 993.9 | 1394.4 | 0.9769
343.15 K | 989.4 | 1376 | 0.923

Settings | refractive index
[2], 298.15 K | 1.469

CCCCCC [hexane]
Settings | mass density [kg/m3]
[1], 313.15 K, 101.33 kPa | 641.2

Settings | refractive index
[2], 298.15 K | 1.372
